Source: ChEMBL document CHEMBL5131515, “Identification of Pyridinyltriazine Derivatives as Potent panFGFR Inhibitors against Gatekeeper Mutants for Overcoming Drug Resistance” (J Med Chem, 2022)

Columns and labels:
[1] = molecular target: Fibroblast growth factor receptor 3 (Homo sapiens, UniProt P22607); assay: Inhibition of wild-type FGFR3 (unknown origin) by radiometric kinase activity assay
[2] = tested on: Fibroblast growth factor receptor 2 (Homo sapiens), P21802 [V564F]; assay: Inhibition of FGFR2 V564F mutant (unknown origin) at 10 uM by radiometric kinase activity assay relative to control
[3] = tested on: Fibroblast growth factor receptor 2 (Homo sapiens), P21802 [N549H]; assay: Inhibition of FGFR2 N549H mutant (unknown origin) at 10 uM by radiometric kinase activity assay relative to control
[4] = tested on: Fibroblast growth factor receptor 3 (Homo sapiens), P22607 [V555M]; assay: Inhibition of FGFR3 V555M mutant (unknown origin) at 10 uM by radiometric kinase activity assay relative to control
[5] = tested on: BaF3; assay: cells; format: functional; conditions: Mus musculus
[6] = tested on: BaF3; assay: Antiproliferative activity against mouse BaF3 cells harboring TEL-FGFR3 assessed as cell growth inhibition by CellTiter-Glo assay; format: functional
[7] = Antiproliferative activity against mouse BaF3 cells assessed as cell growth inhibition by CellTiter-Glo assay; conditions: BaF3 cells
[8] = tested on: AN3-CA; assay: Antiproliferative activity against human AN3-CA cells harboring FGFR2 K310R/N549K mutant assessed as cell growth inhibition by CellTiter-Glo assay; format: functional
[9] = tested on: KMS-11; assay: Antiproliferative activity against human KMS-11 cells harboring FGFR3 Y373C mutant assessed as cell growth inhibition by CellTiter-Glo assay; format: functional
[10] = tested on: J82; assay: Antiproliferative activity against human J82 cells harboring FGFR3 K652E mutant assessed as cell growth inhibition by CellTiter-Glo assay; format: functional
[11] = tested on: BaF3; assay: Antiproliferative activity against mouse BaF3 cells harboring TEL-FGFR4 V550E mutant assessed as cell growth inhibition by CellTiter-Glo assay; format: functional
[12] = tested on: BaF3; assay: Antiproliferative activity against mouse BaF3 cells harboring TEL-FGFR4 N535K mutant assessed as cell growth inhibition by CellTiter-Glo assay; format: functional
[13] = tested on: AN3-CA; assay: Antitumor activity against human AN3-CA cells xenografted in BALB/c mouse assessed as tumor mean volume at 10 mg/kg, po qd for 15 days measured once every 2 days (reference value: 100%); format: functional; conditions: time 15 day
[14] = tested on: BaF3; assay: Antitumor activity against mouse BaF3 cells harboring TEL-V555M-FGFR3 mutant xenografted in BALB/c mouse assessed as tumor mean volume at 30 mg/kg, po qd for 15 days measured once every 2 days (reference value: 100%); format: functional; conditions: time 15 day
[15] = tested on: BaF3; assay: Antitumor activity against mouse BaF3 cells harboring TEL-V555M-FGFR3 mutant xenografted in BALB/c mouse assessed as tumor mean volume at 30 mg/kg, ip qd for 15 days measured once every 2 days (reference value: 100%); format: functional; conditions: time 15 day
[16] = tested on: BaF3; assay: Antitumor activity against mouse BaF3 cells harboring TEL-V555M-FGFR3 mutant xenografted in BALB/c mouse assessed as tumor growth inhibition at 30 mg/kg, ip qd for 15 days measured once every 2 days; format: functional; conditions: BaF3, 360 h, time 15 day
[17] = Stability in human liver microsomes assessed as parent compound remaining at 1 uM incubated for 30 mins; format: ADME, Microsome; conditions: read-out: Stability
[18] = Stability in mouse liver microsomes assessed as parent compound remaining at 1 uM incubated for 30 mins; format: ADME, Microsome; conditions: read-out: Stability
[19] = Stability in rat liver microsomes assessed as parent compound remaining at 1 uM incubated for 30 mins; format: ADME, Microsome; conditions: read-out: Stability
[20] = Stability in dog liver microsomes assessed as parent compound remaining at 1 uM incubated for 30 mins; format: ADME, Canis lupus familiaris, Microsome; conditions: read-out: Stability
[21] = molecular target: T1, CYP1A2 (Homo sapiens, UniProt P05177); assay: Inhibition of CYP1A2 (unknown origin) assessed as remaining activity at 10 uM relative to control; format: ADME; conditions: read-out: Activity
T1 sequence (P05177 whole entry): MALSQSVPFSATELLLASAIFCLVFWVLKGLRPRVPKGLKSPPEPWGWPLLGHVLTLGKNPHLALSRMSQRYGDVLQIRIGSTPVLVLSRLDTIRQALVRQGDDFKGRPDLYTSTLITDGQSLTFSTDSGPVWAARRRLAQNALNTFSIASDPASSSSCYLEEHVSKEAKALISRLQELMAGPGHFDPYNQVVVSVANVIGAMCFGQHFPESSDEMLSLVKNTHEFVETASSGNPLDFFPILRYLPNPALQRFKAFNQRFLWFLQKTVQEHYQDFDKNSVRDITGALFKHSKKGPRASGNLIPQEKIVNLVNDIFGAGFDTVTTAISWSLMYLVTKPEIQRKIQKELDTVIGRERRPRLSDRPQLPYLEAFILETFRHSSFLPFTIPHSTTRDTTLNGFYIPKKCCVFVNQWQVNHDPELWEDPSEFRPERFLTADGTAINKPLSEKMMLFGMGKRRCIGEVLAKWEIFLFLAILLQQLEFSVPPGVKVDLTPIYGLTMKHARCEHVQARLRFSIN

[22] = molecular target: CYP2C9 (Homo sapiens, UniProt P11712); assay: Inhibition of CYP2C9 (unknown origin) assessed as remaining activity at 10 uM relative to control; format: ADME; conditions: read-out: Activity
[23] = molecular target: CYP2C19 (Homo sapiens, UniProt P33261); assay: Inhibition of CYP2C19 (unknown origin) assessed as remaining activity at 10 uM relative to control; format: ADME; conditions: read-out: Activity
[24] = molecular target: CYP2D6 (Homo sapiens, UniProt P10635); assay: Inhibition of CYP2D6 (unknown origin) assessed as remaining activity at 10 uM relative to control; format: ADME; conditions: read-out: Activity
[25] = molecular target: CYP3A4 (Homo sapiens, UniProt P08684); assay: Inhibition of CYP3A4 (unknown origin) assessed as remaining activity at 10 uM relative to control; format: ADME; conditions: read-out: Activity
[26] = molecular target: Fibroblast growth factor receptor 2 (Homo sapiens, UniProt P21802); assay: Inhibition of wild-type FGFR2 (unknown origin) by radiometric kinase activity assay
[27] = molecular target: Fibroblast growth factor receptor 4 (Homo sapiens, UniProt P22455); assay: Inhibition of wild-type FGFR4 (unknown origin) by radiometric kinase activity assay
[28] = molecular target: Fibroblast growth factor receptor 2 (Homo sapiens, UniProt P21802, V564F)
Description: Inhibition of FGFR2 V564F mutant (unknown origin) by radiometric kinase activity assay

[29] = molecular target: Fibroblast growth factor receptor 3 (Homo sapiens, UniProt P22607, V555M)
[30] = molecular target: Fibroblast growth factor receptor 2 (Homo sapiens, UniProt P21802, N549H)
[31] = molecular target: Fibroblast growth factor receptor 3 (Homo sapiens, UniProt P22607, K650E)
[32] = molecular target: Fibroblast growth factor receptor 3 (Homo sapiens, UniProt P22607, K650M)
[33] = tested on: BaF3; assay: Growth inhibition of mouse BaF3 cells harboring TEL-FGFR3 V555M mutant incubated for 72 hrs by Alamar blue assay; format: functional
[34] = Oral bioavailability in mouse at 10 mg/kg; format: ADME, organism-based; conditions: in vivo
[35] = Toxicity in BALB/c mouse xenografted with human AN3-CA cells assessed as body weight loss at 20 to 40 mg/kg, po qd for 15 days measured once every 2 days; format: organism-based; conditions: in vivo, 360 h, dose 20-40 mg/kg, time 15 day

Sequence of Fibroblast growth factor receptor 3 (Homo sapiens), P22607 [V555M] (P22607 whole entry V555M): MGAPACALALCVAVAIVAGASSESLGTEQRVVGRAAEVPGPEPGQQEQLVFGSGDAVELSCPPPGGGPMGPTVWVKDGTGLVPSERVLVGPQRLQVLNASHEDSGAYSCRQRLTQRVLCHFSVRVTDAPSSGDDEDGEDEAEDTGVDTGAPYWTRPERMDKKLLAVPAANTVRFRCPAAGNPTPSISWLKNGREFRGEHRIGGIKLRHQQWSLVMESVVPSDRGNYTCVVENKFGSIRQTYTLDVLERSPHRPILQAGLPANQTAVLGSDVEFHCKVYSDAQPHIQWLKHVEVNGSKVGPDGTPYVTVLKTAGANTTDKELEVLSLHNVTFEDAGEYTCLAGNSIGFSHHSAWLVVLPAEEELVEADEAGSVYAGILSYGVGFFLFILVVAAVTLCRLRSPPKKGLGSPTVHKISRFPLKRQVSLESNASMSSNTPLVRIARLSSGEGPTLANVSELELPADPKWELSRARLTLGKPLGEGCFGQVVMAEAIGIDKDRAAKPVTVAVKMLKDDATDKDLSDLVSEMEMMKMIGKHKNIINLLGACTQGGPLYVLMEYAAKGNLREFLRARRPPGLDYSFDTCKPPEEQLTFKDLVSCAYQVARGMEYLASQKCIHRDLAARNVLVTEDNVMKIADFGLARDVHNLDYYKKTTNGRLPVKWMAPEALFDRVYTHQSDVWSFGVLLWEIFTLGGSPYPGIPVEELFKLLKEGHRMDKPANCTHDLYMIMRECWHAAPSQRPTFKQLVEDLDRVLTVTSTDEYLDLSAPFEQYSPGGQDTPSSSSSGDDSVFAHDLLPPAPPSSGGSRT
Sequence of Fibroblast growth factor receptor 3 (Homo sapiens, UniProt P22607, K650E) (P22607 23-806 K650E limits assumed): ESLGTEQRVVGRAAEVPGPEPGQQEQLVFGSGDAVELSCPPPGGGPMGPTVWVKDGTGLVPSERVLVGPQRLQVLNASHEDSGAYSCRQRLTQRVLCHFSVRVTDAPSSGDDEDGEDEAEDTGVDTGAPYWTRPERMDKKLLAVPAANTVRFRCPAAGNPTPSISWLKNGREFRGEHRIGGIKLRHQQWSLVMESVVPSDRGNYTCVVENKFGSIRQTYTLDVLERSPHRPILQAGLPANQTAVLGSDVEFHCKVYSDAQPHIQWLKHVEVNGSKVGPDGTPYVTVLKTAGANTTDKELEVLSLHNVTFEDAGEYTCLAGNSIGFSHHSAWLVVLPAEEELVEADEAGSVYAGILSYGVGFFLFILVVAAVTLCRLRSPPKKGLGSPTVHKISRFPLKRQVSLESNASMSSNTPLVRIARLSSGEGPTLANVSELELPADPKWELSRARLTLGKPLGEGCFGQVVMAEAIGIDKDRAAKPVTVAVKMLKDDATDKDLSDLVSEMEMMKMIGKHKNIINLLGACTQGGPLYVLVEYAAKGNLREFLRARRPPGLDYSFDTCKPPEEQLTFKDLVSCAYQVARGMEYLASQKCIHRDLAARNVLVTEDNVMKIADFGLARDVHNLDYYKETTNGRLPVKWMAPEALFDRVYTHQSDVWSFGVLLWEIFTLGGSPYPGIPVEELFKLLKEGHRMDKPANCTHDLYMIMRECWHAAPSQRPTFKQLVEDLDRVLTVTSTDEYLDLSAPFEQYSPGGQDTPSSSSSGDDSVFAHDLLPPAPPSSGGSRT
Sequence of Fibroblast growth factor receptor 3 (Homo sapiens, UniProt P22607) (P22607 whole entry): as the sequence (P22607 whole entry V555M) above, with M555V counted along it
Sequence of CYP2D6 (P10635 whole entry): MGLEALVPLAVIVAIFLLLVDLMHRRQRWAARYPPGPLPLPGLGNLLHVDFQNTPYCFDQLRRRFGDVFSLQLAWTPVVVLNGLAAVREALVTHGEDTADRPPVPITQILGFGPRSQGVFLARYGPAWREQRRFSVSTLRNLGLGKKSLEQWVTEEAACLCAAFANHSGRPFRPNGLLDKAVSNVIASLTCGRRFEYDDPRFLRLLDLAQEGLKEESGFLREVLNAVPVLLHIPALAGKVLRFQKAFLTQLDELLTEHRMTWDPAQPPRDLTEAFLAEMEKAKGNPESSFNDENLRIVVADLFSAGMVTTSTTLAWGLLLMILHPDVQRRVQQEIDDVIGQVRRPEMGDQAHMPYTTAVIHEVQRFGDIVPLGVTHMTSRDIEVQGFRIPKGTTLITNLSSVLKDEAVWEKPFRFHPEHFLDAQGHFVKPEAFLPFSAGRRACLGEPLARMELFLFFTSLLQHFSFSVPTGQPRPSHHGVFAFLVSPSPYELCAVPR
Sequence of Fibroblast growth factor receptor 2 (Homo sapiens), P21802 [N549H] (P21802 whole entry N549H): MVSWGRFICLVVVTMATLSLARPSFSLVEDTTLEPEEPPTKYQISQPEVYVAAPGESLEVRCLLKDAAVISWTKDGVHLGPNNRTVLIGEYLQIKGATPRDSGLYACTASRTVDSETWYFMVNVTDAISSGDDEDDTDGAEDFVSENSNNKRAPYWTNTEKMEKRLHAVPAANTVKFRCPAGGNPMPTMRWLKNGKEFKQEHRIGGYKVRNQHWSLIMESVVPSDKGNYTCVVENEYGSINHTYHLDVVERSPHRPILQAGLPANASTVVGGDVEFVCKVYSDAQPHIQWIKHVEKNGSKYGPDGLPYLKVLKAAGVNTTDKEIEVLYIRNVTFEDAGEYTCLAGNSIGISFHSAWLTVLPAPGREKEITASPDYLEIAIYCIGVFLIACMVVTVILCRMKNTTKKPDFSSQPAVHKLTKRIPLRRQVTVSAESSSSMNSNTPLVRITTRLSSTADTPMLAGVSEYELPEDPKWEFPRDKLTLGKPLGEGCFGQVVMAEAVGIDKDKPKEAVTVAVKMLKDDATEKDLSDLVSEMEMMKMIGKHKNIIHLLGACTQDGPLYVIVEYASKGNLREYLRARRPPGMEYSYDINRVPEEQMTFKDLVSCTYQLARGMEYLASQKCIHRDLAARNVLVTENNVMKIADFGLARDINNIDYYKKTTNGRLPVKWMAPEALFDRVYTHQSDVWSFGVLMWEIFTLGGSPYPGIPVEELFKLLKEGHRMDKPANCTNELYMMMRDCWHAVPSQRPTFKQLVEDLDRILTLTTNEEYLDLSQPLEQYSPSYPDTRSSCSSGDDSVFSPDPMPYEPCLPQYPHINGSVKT
Sequence of Fibroblast growth factor receptor 2 (Homo sapiens, UniProt P21802) (P21802 whole entry): as the sequence (P21802 whole entry N549H) above, with H549N counted along it
Sequence of CYP2C19 (P33261 whole entry): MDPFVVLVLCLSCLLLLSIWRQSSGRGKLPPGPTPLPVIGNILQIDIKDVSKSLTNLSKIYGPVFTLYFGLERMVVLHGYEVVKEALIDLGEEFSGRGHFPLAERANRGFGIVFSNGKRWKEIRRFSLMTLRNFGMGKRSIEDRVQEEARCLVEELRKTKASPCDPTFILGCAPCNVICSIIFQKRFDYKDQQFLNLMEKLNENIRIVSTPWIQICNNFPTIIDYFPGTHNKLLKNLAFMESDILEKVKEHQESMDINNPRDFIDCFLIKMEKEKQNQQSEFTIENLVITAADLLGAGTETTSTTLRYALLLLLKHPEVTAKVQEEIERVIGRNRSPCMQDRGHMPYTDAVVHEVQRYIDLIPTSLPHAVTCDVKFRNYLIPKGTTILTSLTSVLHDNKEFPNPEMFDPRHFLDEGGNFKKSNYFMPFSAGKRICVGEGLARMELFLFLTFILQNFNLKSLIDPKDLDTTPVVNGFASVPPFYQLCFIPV

IC50 [1] [nM]	inhibition [2] [%]	inhibition [3] [%]	inhibition [4] [%]	GI50 [5] [nM]	GI50 [6] [nM]	GI50 [11] [nM]	GI50 [12] [nM]	remaining at 0.5 h, 1 µM [17] [%]	remaining at 0.5 h, 1 µM [18] [%]	remaining at 0.5 h, 1 µM [19] [%]	activity at 10 µM [21] [%]	activity at 10 µM [22] [%]	activity at 10 µM [23] [%]	activity at 10 µM [24] [%]	activity at 10 µM [25] [%]	Structure (SMILES)	GI50 [7] [nM]	GI50 [8] [nM]	GI50 [9] [nM]	GI50 [10] [nM]	also measured
0.98				1020	10	2590	3650	62.6	62.1	65.4	72.8	89.9	51	> 100	44.1	COc1cc(OC)c(Cl)c(Nc2ncccc2-c2ncnc(Nc3cnn(C4CCNCC4)c3)n2)c1Cl	> 5000	29	111	977	IC50 [26]: < 0.5 nM; IC50 [27]: 26.3 nM; IC50 [28]: 727 nM; IC50 [29]: 268 nM; IC50 [30]: 2.53 nM; IC50 [31]: < 0.5 nM; IC50 [32]: 10.9 nM; bioavailability [34]: 13.2%; Activity [35]: Non-Toxic; remaining at 0.5 h, 1 µM [20]: 66.9%
1550	< 50	< 50	< 50	> 5000	> 5000											COc1cc(N2CCOCC2)ccc1Nc1ncnc(-c2cccnc2Nc2c(Cl)c(OC)cc(OC)c2Cl)n1	> 5000	> 50000	> 50000	31200	

Continued, compound first:

Structure (SMILES)	IC50 [1] [nM]	inhibition [2] [%]	inhibition [3] [%]	inhibition [4] [%]	GI50 [5] [nM]	GI50 [6] [nM]	GI50 [11] [nM]	GI50 [12] [nM]	remaining at 0.5 h, 1 µM [17] [%]	remaining at 0.5 h, 1 µM [18] [%]	remaining at 0.5 h, 1 µM [19] [%]	activity at 10 µM [21] [%]	activity at 10 µM [22] [%]	activity at 10 µM [23] [%]	activity at 10 µM [24] [%]	activity at 10 µM [25] [%]	GI50 [7] [nM]	GI50 [8] [nM]	GI50 [9] [nM]	GI50 [10] [nM]	also measured
COc1cc(OC)c(Cl)c(Nc2ncccc2-c2ncnc(Nc3ccc(N4CCOCC4)nc3OC)n2)c1Cl	1710	< 50	< 50	< 50	> 5000	> 5000											> 5000	> 50000	> 50000	31000	
CCN1CCN(c2ccc(Nc3cc(N(C)C(=O)Nc4c(Cl)c(OC)cc(OC)c4Cl)ncn3)cc2)CC1 [INFIGRATINIB]		< 50			2600	5	4000	> 5000	77	22.3	10.9	77.3	88.4	64.9	94.9	83	> 5000	39	220	3340	Activity [13]: 14.1%; Activity [14]: 49%; Activity [15]: 44.74%; inhibition in vivo at 30 mg/kg [16]: 60.2%; remaining at 0.5 h, 1 µM [20]: 8.1%
COc1cc(OC)c(Cl)c(Nc2ncccc2-c2ncnc(Nc3cnn(C4CCN(C(C)C)CC4)c3)n2)c1Cl	< 0.5				183	5	749	1680	21.8	11.5		75.9	79.1	44.6	81	17.6	> 5000	21	34	547	IC50 [26]: < 0.5 nM; IC50 [27]: 7.3 nM; IC50 [28]: 189 nM; IC50 [29]: 22.3 nM; IC50 [30]: < 0.5 nM; IC50 [31]: < 0.5 nM; IC50 [32]: 4.8 nM
Cc1nc2ccc(-n3ncc(C(=O)c4cc5ccccc5[nH]4)c3N)cc2[nH]1 [FGFR INHIBITOR DEBIO 1347]																					GI50 [33]: 8240 nM
COc1ccccc1Nc1ncnc(-c2cccnc2Nc2c(Cl)c(OC)cc(OC)c2Cl)n1	275	< 50	< 50	< 50	> 5000	4120											> 5000	5550	> 50000	31200	
COc1cc(OC)c(Cl)c(Nc2ncccc2-c2ncnc(Nc3ccc(N4C[C@@H](C)N[C@@H](C)C4)cc3)n2)c1Cl	0.6				733	5	354	520	10.2	44.8	11.7	72.6	62.3	31.8	77.3	13.3	1530	15	237	428	IC50 [26]: < 0.5 nM; IC50 [27]: 27 nM; IC50 [28]: 363 nM; IC50 [29]: 116 nM; IC50 [30]: 0.52 nM; IC50 [31]: < 0.5 nM; IC50 [32]: 26.1 nM; remaining at 0.5 h, 1 µM [20]: 19%
